In the supplement of paper PMC10307832 one finds relative viability data, which are given here for 1 cell line.

Test in all cases: relative viability (nuclei count vs DMSO), 5 days (fraction); higher = more cells survive
Compound in test [1]: N=C1NC(=O)/C(=C/c2ccc(O)cc2)S1 [Mirin] + Nc1ncn([C@H]2C[C@H](O)[C@@H](CO)O2)c(=O)n1 [Decitabine] (partner 2 µM)
Summed up:
(§1)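 The day after seeding in 1536-well plates, lung cancer cell lines were treated by pin tool with a single drug, or with a fixed anchor-drug dose together with five library-drug doses (not always all listed) in √10 steps. After 5 days, a combined fix-and-stain solution (final 0.05% Triton X-100, 1% formaldehyde, 1 ug/ml Hoechst) was added. Nuclei counted on 4× images gave relative viability as treated counts over vehicle counts, reported as the median of duplicate plates.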

Compound in test [2]: CCC1=CN=CN=C1N2CCN(CC2)CC3=NC4=C(N3)C=C(C=C4)C(F)(F)F + CS(=O)(=O)N1CCN(Cc2cc3nc(-c4cccc5[nH]ncc45)nc(N4CCOCC4)c3s2)CC1 [Pictilisib] (partner 1 µM)
Summed up: as §1

Compound in test [3]: N=C1NC(=O)/C(=C/c2ccc(O)cc2)S1 [Mirin] + CCNC(=O)c1noc(-c2cc(C(C)C)c(O)cc2O)c1-c1ccc(CN2CCOCC2)cc1 [Luminespib] (partner 0.01 µM)
Summed up:
as §1

Compound in test [4]: CCC1=CN=CN=C1N2CCN(CC2)CC3=NC4=C(N3)C=C(C=C4)C(F)(F)F + Nc1ncn([C@H]2C[C@H](O)[C@@H](CO)O2)c(=O)n1 [Decitabine] (partner 2 µM)
The method, boiled down: as §1

UMC-11: the relative viability in test [1] (first compound 0.25 µM) is 0.533; in test [1] (first compound 2.5 µM), 0.572; in test [1] (first compound 7.906 µM) it was 0.54; in test [1] (first compound 25 µM), 0.418; in test [2] (first compound 0.04 µM), 0.723; in test [2] (first compound 0.1265 µM), 0.832. Besides, the relative viability in test [2] (first compound 0.4 µM) came out at 0.706; in test [2] (first compound 1.265 µM), 0.548; in test [2] (first compound 4 µM), 0.741; in test [3] (first compound 0.25 µM), 1.09; in test [3] (first compound 0.7906 µM) it was 0.983; in test [3] (first compound 2.5 µM), 1.01. Also, the relative viability in test [3] (first compound 7.906 µM) is 0.826; in test [3] (first compound 25 µM), 0.695; in test [4] (first compound 0.04 µM), 0.622; in test [4] (first compound 0.1265 µM), 0.562; in test [4] (first compound 0.4 µM) it was 0.602; in test [4] (first compound 1.265 µM) it was 0.379. In test [4] (first compound 4 µM), the relative viability was 0.351.
